Measured values: article PMC8881610 (Nature Communications, 2022)
Several values for one entry are separate records, joined by “and”; a condition that tells them apart may be missing. Equal values may be shown once. Read-outs that look alike come from different tables or passages of the source. Where a SMILES comes first, the peptide text is derived from it. [ ]: non-standard residue; d: D form. Aib = CC(C)(N)C(=O)O

Tests used:
[1] = target: T1, GIPR (Homo sapiens, UniProt P48546); test: cAMP accumulation assay (LANCE Ultra cAMP kit), GIPR WT, mutant or modified constructs; type: cell-based; set-up: acylated tirzepatide to the full-length or modified; Flag; expressed in transfected cells; host or cells: HEK293T; conditions: for EC50 / Emax: HEK293T; for Emax: HEK-293T, read-out: cAMP accumulation Emax
T1 sequence (P48546 22-466): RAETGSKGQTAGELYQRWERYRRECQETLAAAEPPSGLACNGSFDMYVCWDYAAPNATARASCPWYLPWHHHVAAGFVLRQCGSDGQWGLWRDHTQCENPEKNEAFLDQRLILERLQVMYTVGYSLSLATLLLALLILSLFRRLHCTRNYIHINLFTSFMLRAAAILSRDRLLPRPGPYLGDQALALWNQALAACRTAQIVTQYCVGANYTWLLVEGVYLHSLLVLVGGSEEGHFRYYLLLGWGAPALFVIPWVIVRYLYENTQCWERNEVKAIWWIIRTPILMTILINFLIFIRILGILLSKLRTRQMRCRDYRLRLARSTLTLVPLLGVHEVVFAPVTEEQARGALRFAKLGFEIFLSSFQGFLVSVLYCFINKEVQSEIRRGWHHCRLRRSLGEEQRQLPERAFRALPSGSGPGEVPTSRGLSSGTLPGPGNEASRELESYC
Method: (§1) Human embryonic kidney 293 cells containing SV40 large T-antigen (HEK293T) were cultured in DMEM (Gibco) supplemented with 10% (v/v) fetal bovine serum (FBS, Gibco), 1 mM sodium pyruvate (Gibco) and 100 units/mL penicillin and 100 μg/mL streptomycin at 37 °C in 5% CO2. Chinese hamster ovary (CHO-K1) cells were cultured in F-12 (Gibco) containing 10% FBS, 100 units/mL penicillin and 100 μg/mL streptomycin at 37 °C in 5% CO2. For cAMP and receptor expression assays, HEK293T cells were seeded into 6-well cell culture plates at a density of 7 × 10^5 cells per well. After overnight incubation, cells were transfected with GIPR, GLP-1R or GCGR construct using Lipofectamine 2000 or Lipofectamine 3000 transfection reagent (Invitrogen). For whole-cell binding assay, CHO-K1 cells were seeded into 96-well fibronectin-treated cell culture plates at a density of 3 × 10^4 cells per well. After overnight incubation, cells were transfected with GIPR, GLP-1R or GCGR construct using Lipofectamine 2000 transfection reagent (Invitrogen). Following 24 h culturing, the transfected cells were ready for use.
A BRIL fusion protein was added at the N-terminal of the ECD with a TEV protease site and 2GSA linker between them. C-terminal 45 amino acids (Q422-C466) of the receptor were truncated. LgBiT was added at the end of helix 8 with a 15-amino acid (15AA) polypeptide linker in between, followed by a TEV protease cleavage site and an OMBP-MBP tag. […] The construct and various mutants of human GIPR were cloned into pcDNA3.1 vector for cAMP accumulation and whole-cell binding assays.
For GIPR, GLP-1R and GCGR, multi-targeting agonist stimulated cAMP accumulation was measured by a LANCE Ultra cAMP kit (PerkinElmer). After 24 h culture, the transfected cells were seeded into 384-well microtiter plates at a density of 3,000 cells per well in HBSS supplemented with 5 mM HEPES, 0.1% (w/v) BSA or 0.1% (w/v) casein and 0.5 mM 3-isobutyl-1-methylxanthine. The cells were stimulated with different concentrations of peptide agonists for 40 min at RT. Eu-cAMP tracer and ULight^TM-anti-cAMP were then diluted by cAMP detection buffer and added to the plates separately to terminate the reaction. Plates were incubated at RT for 1 h and the fluorescence intensity measured at 620 nm and […] by an EnVision multilabel plate reader (PerkinElmer).

[2] = target: T1, GIPR; test: Whole-cell binding assay, competition with 125I-GIP1-42; set-up: acylated tirzepatide to the full-length or modified; Flag; expressed in transfected cells
Method: as §1
For GIPR, CHO-K1 cells were cultured in F-12 medium with 10% FBS and seeded at a density of 30,000 cells/well in Isoplate-96 plates (PerkinElmer). The WT or mutant GIPR was transiently transfected using Lipofectamine 2000 transfection reagent as previous described. They were then washed twice using F-12 with 0.1% BSA or 0.1% casein, 33 mM HEPES, and incubated for 2 h at 37 °C. […] Following incubation, cells were washed three times with ice-cold PBS and lysed by addition of 50 μL lysis buffer (PBS supplemented with 20 mM Tris-HCl, 1% Triton X-100, pH 7.4). Fifty µL of scintillation cocktail (OptiPhase SuperMix, PerkinElmer) were added and the plates were subsequently counted for radioactivity (counts per minute, CPM) in a MicroBeta^2 microplate counter (PerkinElmer).

[3] = target: GLP-1R (Homo sapiens, UniProt P43220); test: β-arrestin 2 recruitment (BRET); type: cell-based; set-up: expressed in transfected cells; host or cells: HEK293T; conditions: GLP-1R WT, HEK293T; for Emax: HEK-293T
Method: HEK293T cells (3.2 × 10^6 cells/10 cm plate) were grown for 24 h before transiently transfection with 15 μg plasmid containing GIPR, GLP-1R or GCGR tagged with Rluc8 and β-arrestin 2 with a Venus-tag at the N terminus at a ratio of 1:9 by Lipofectamine 3000 transfection reagent. After cells were grown for 24 h, transiently transfected cells were then seeded onto poly-D-lysine coated 96-well culture plates (50,000 cells/well) in DMEM with 10% FBS. Cells were grown for 20 h before incubation in assay buffer (HBSS supplemented with 10 mM HEPES, 0.1% BSA or 0.1% casein, pH 7.4) for 30 min at 37 °C. Coelentrazine-h (Yeasen Biotech) was added to a final concentration of 5 μM for 5 min before bioluminescence resonance energy transfer (BRET) readings were made using an EnVision plate reader (PerkinElmer). BRET baseline measurements were collected for 15 cycles prior to ligand addition. After which, BRET was measured for 55 cycles.

[4] = GIPR WT, 0.1% casein, CHO-K1, read-out: Binding pIC50 (converted)
[5] = GIPR, effect of tirzepatide acylation, CHO-K1, read-out: binding pIC50 (converted)

Sequence of GLP-1R (P43220 24-463): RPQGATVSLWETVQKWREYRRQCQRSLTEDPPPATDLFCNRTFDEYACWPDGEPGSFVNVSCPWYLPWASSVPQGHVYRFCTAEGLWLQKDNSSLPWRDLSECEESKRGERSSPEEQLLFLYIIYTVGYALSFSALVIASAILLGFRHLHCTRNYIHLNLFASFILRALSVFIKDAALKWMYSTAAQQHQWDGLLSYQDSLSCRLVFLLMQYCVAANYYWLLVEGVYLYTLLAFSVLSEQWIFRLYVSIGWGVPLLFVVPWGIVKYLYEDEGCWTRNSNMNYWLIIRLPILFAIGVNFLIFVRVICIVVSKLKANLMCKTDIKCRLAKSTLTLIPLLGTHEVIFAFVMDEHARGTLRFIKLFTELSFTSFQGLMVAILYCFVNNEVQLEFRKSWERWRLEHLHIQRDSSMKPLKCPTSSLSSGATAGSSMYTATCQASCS

Row | SMILES | EC50 ([1]; GIPR WT, 0.1% BSA, read-out: cAMP accumulation pEC50 (converted)) | binding Span ([2]; GIPR WT, 0.1% casein, CHO-K1) | IC50 [2, 4] | binding Span ([2]; GIPR, effect of tirzepatide acylation, CHO-K1) | IC50 [2, 5] | EC50 ([3]; 0.1% casein, read-out: β-arrestin 2 recruitment pEC50 (converted)) | Emax ([3]; 0.1% BSA) | Emax ([3]; 0.1% casein) | reduction of cAMP accumulation vs peptide 20 ([1]; GIPR, 0.1% BSA) | EC50 for cAMP accumulation relative to peptide 20 ([1]; GIPR, 0.1% casein) | Emax ([1]; GIPR WT, 0.1% BSA) | Emax ([1]; GIPR WT, 0.1% casein) | IC50 ([2]; GIPR WT, 0.1% BSA, CHO-K1, read-out: Binding pIC50 (converted)) | EC50 ([1]; GIPR WT, read-out: cAMP pEC50 (converted)) | EC50 ([1]; GIPR, n = 4, SEM, read-out: cAMP pEC50 ± S.E.M. (converted)) | IC50 ([2]; Fig. 7c receptor binding profile, n = 3 in duplicate, SEM, read-out: GIPR (pIC50 ± S.E.M.) (converted)) | binding Span ([2]; GIPR WT, CHO-K1) | IC50 ([2]; GIPR WT, CHO-K1, read-out: binding pIC50 (converted))
1 | CC[C@H](C)[C@H](NC(=O)[C@H](CC(C)C)NC(=O)[C@H](Cc1c[nH]c2ccccc12)NC(=O)[C@H](CCC(N)=O)NC(=O)[C@@H](NC(=O)[C@H](Cc1ccccc1)NC(=O)[C@H](C)NC(=O)[C@H](CCCCN)NC(=O)[C@H](CCC(N)=O)NC(=O)[C@H](C)NC(=O)[C@@H](NC(=O)[C@H](CCCCN)NC(=O)[C@H](CC(=O)O)NC(=O)[C@H](CC(C)C)NC(=O)C(C)(C)NC(=O)[C@@H](NC(=O)[C@H](CO)NC(=O)[C@H](Cc1ccc(O)cc1)NC(=O)[C@H](CC(=O)O)NC(=O)[C@H](CO)NC(=O)[C@@H](NC(=O)[C@H](Cc1ccccc1)NC(=O)[C@@H](NC(=O)CNC(=O)[C@H](CCC(=O)O)NC(=O)C(C)(C)NC(=O)[C@@H](N)Cc1ccc(O)cc1)[C@@H](C)O)[C@@H](C)O)[C@@H](C)CC)[C@@H](C)CC)C(C)C)C(=O)N[C@@H](C)C(=O)NCC(=O)NCC(=O)N1CCC[C@H]1C(=O)N[C@@H](CO)C(=O)N[C@@H](CO)C(=O)NCC(=O)N[C@@H](C)C(=O)N1CCC[C@H]1C(=O)N1CCC[C@H]1C(=O)N1CCC[C@H]1C(=O)N[C@@H](CO)C(N)=O [Non-acylated tirzepatide] | 0.00182 nM | 88.80 ± 5.25 | 3.39 nM | 90.71 ± 3.70 % WT or Tirzepatide | 12.6 nM | 27.5 nM | 36.6 ± 0.52% | 40.77 ± 0.37% |  |  |  |  |  |  |  |  |  | 
2 | CC(C)C[C@H](NC(=O)[C@H](CC(C)C)NC(=O)[C@H](Cc1c[nH]c2ccccc12)NC(=O)[C@H](CCC(N)=O)NC(=O)[C@@H](NC(=O)[C@H](Cc1ccccc1)NC(=O)[C@H](CC(=O)O)NC(=O)[C@H](CCC(N)=O)NC(=O)[C@H](C)NC(=O)[C@H](C)NC(=O)[C@H](CCCNC(=N)N)NC(=O)[C@H](CCC(=O)O)NC(=O)[C@H](CC(=O)O)NC(=O)[C@H](CC(C)C)NC(=O)[C@H](Cc1ccc(O)cc1)NC(=O)[C@H](CCCCN)NC(=O)[C@H](CO)NC(=O)[C@H](CCCCN)NC(=O)[C@H](CC(=O)O)NC(=O)[C@H](CO)NC(=O)[C@@H](NC(=O)[C@H](Cc1ccccc1)NC(=O)[C@@H](NC(=O)CNC(=O)[C@H](CCC(N)=O)NC(=O)C(C)(C)NC(=O)[C@@H](N)Cc1c[nH]cn1)[C@@H](C)O)[C@@H](C)O)C(C)C)C(=O)N[C@@H](CC(=O)O)C(=O)NCC(=O)NCC(=O)N1CCC[C@H]1C(=O)N[C@@H](CO)C(=O)N[C@@H](CO)C(=O)NCC(=O)N[C@@H](C)C(=O)N1CCC[C@H]1C(=O)N1CCC[C@H]1C(=O)N1CCC[C@H]1C(=O)N[C@@H](CO)C(N)=O [Non-lipidated peptide 20] (H-H[Aib]QGTFTSDKSKYLDERAAQDFVQWLLDGGPSSGAPPPS-NH2; N-terminus and C-terminus assumed) |  |  | 170 nM |  |  |  | 65.4 ± 1.04% | 64.3 ± 3.97% | 1,288 fold | −871 fold | 99.4 ± 6.44% | 88.5 ± 6.52% | 51.3 nM |  |  |  |  | 
3 | CC[C@H](C)[C@H](NC(=O)[C@H](CC(C)C)NC(=O)[C@H](Cc1c[nH]c2ccccc12)NC(=O)[C@H](CCC(N)=O)NC(=O)[C@@H](NC(=O)[C@H](Cc1ccccc1)NC(=O)[C@H](C)NC(=O)[C@H](CCCCNC(=O)COCCOCCNC(=O)COCCOCCNC(=O)CC[C@H](NC(=O)CCCCCCCCCCCCCCCCCCC(=O)O)C(=O)O)NC(=O)[C@H](CCC(N)=O)NC(=O)[C@H](C)NC(=O)[C@@H](NC(=O)[C@H](CCCCN)NC(=O)[C@H](CC(=O)O)NC(=O)[C@H](CC(C)C)NC(=O)C(C)(C)NC(=O)[C@@H](NC(=O)[C@H](CO)NC(=O)[C@H](Cc1ccc(O)cc1)NC(=O)[C@H](CC(=O)O)NC(=O)[C@H](CO)NC(=O)[C@@H](NC(=O)[C@H](Cc1ccccc1)NC(=O)[C@@H](NC(=O)CNC(=O)[C@H](CCC(=O)O)NC(=O)C(C)(C)NC(=O)[C@@H](N)Cc1ccc(O)cc1)[C@@H](C)O)[C@@H](C)O)[C@@H](C)CC)[C@@H](C)CC)C(C)C)C(=O)N[C@@H](C)C(=O)NCC(=O)NCC(=O)N1CCC[C@H]1C(=O)N[C@@H](CO)C(=O)N[C@@H](CO)C(=O)NCC(=O)N[C@@H](C)C(=O)N1CCC[C@H]1C(=O)N1CCC[C@H]1C(=O)N1CCC[C@H]1C(=O)N[C@@H](CO)C(N)=O [Tirzepatide] |  | 92.95 ± 3.97 | 3.16 nM |  | 105 nM |  |  |  |  |  |  |  |  | 0.0288 nM | 0.0126 nM | 31.6 nM | 102.92 ± 6.94 % WT | 89.1 nM and 97.7 nM
